From patent US20140194361A1, “Vault Agents for Treating Chronic Kidney Disease” (priority 2010, published 2014)
Entries after “also recorded” stand apart in the source; their conditions may differ. No end group written: not given here.

Legend:
[1] = tested on: extracellular matrix and signaling proteins of DN; test: expression of extracellular matrix and signaling proteins of DN in cells (immunoblotting); type: cell-based; settings: for expression of extracellular matrix and signaling proteins of DN: serum-starved 48 h, treated 48 h, vs RGE/CRGE peptides
Description: Cells were serum-starved for 48 h and then untreated or treated with or without the unmodified RGD/RGE and modified CRGD/CRGE peptide for 48 h.

[2] = tested on: type 2 diabetic db/db mice; test: prevention of progression of early DN in type 2 diabetic db/db mice; type: in vivo
Excerpt: There was no change in blood pressure or plasma glucose in either the diabetic or non-diabetic animals.
There was no change in creatinine clearance in the cyclic-GRGESP-control peptide treated diabetic animals
In addition, glomerular volume measured by fractional volume of expansion by electron microscopy was normalized, p<0.05 after 12 weeks of treatment.
(§1) We investigated the ability of cyclic GRGDSP vs. GRGESP in a pilot study to prevent accumulation of glomerular lesions in early DN in 20 week old diabetic type 2 db/db vs non-diabetic db/m and diabetic type 1 Ins2Akita+ vs. non-diabetic Ins2+/+ mice with GRGESP and […] and observed up to 52% reduction in albuminuria in the type 2 diabetic mice (FIGS. 1-2) and ˜70% reduction in albuminuria in the type 1 diabetic mice (FIG. 6).

[3] = tested on: type 1 diabetic Ins2Akita/+ mice; test: prevention of progression of DN in type 1 diabetic Ins2Akita/+ mice; type: in vivo
Description: as §1

[4] = tested on: aged type 2 diabetic db/db mice; test: regression of established DN in aged type 2 diabetic db/db mice; type: in vivo
[5] = tested on: integrin; test: experimentally verified RGD inhibitors blocking fibronectin adhesion to integrin
Excerpt: Preferably, the synthetic analog inhibitors should have higher affinity to the integrin than the RGD loop of fibronectin. […] These two cyclic peptides were also used as reference structures to construct new inhibitors.
Combining the experimental results with the data obtained from our calculations we were able to predict the efficiency of the various inhibitors and to determine which structure is the most favorable fragment with regard to integrin binding energy.

[6] = 2400 μg/kg, after 4, 8 and 12 weeks of treatment
[7] = type 2 and type 1 diabetic mice, 400-2400 μg/kg

Substance: CGRGDSP (also: cyclic peptide, ring closure not given here) [cyclic GRGDSP peptide with an added cysteine linker (free cysteine residue)]
- integrin-mediated cellular signaling by TGF-β, AKT and STAT3 ([1]; kinetic studies and immunoblotting): inhibition
- expression of extracellular matrix and signaling proteins of DN [1]: significantly reduced

Substance: GRGDSP [cyclic-GRGDSP]
- expression of extracellular matrix and signaling proteins of DN [1]: significantly reduced
- amelioration of albumin excretion rate [2, 6]: up to 52%
- glomerular extracellular matrix expansion (periodic acid Schiff staining) ([2]; after 12 weeks of treatment): prevented glomerular extracellular matrix expansion
- glomerular volume (fractional volume of expansion by electron microscopy) ([2]; after 12 weeks of treatment): normalized
- albumin excretion rate in control animals ([2]; control type 2 diabetic animals, 2400 μg/kg): did not alter
- albumin excretion rate ([2]; db/db vs db/m mice, 400-2400 μg/kg, after 4 weeks of treatment, vs cyclic-GRGESP control): ameliorating albumin excretion rate in a dose dependent manner
- DN signaling proteins by Western blot [2, 7]: significant reduction
- glomerular expression extracellular matrix by Periodic Acid Schiff and electron microscopy [2, 7]: significant reduction
- reduction in albuminuria ([2]; type 2 diabetic mice, 400-2400 μg/kg): up to 52%
- albuminuria measured as albumin-to-creatinine ratio [3, 6]: ameliorated albuminuria
- glomerular expression of extracellular matrix proteins (fibronectin, collagen I and collagen IV) ([3]; after 12 weeks of treatment): reduced glomerular expression of extracellular matrix proteins
- reduction in albuminuria ([3]; type 1 diabetic mice, 400-2400 μg/kg): ~70%
- reduction in albuminuria ([4]; 21-week-old db/db mice, 2400-4800 μg/kg, 4 weeks i.p.): up to 71%
- expression of fibronectin, collagen I, collagen IV, TGF-β, ERK/MAPK and Nox4 (Western blot of kidney cortical tissues) ([4]; 2400-4800 μg/kg, 4 weeks i.p.): reduced expression
- glomerulosclerosis index (Periodic Schiff stained kidney section) ([4]; 2400-4800 μg/kg, 4 weeks i.p.): significant reduction
- mesangial expansion ([4]; 2400-4800 μg/kg, 4 weeks i.p.): reduced mesangial expansion
- reduction of albumin excretion rate ([4]; 3600 and 4800 μg/kg, 4 weeks intraperitoneal, dose-dependent): up to 71%
- glomerular extracellular matrix proteins (fibronectin, collagen I and collagen IV) ([4]; 3600 and 4800 μg/kg, 4 weeks, dose-dependent): reduced glomerular extracellular matrix proteins
- expression of known signaling molecules of DN ([4]; 3600 and 4800 μg/kg, dose-dependent): reduced the expression

Substance: cyc-RGDSPCG
- efficiency as inhibitor (experimentally verified) [5]: efficient inhibitors

Substance: cyc-RGDSPG
- efficiency as inhibitor (experimentally verified) [5]: successful candidate of inhibitors; also recorded: efficient inhibitors

Substance: cyc-RGDSPSG (cyclised or stapled)
- efficiency as inhibitor (experimentally verified) [5]: efficient inhibitors
